Test results from US5025036A, “Catechol carboxylic acids” (Hoffmann-La Roche Inc., priority 1989, dated 1991).
pIC50: −log10 of the molar value. Blank lines part the entries; values can stand above or below the molecule they belong to.

Key:
[1] = system: myeloperoxidase accumulation (acetic acid-induced colitis); assay: Acetic Acid-Induced Colitis in Rats, In Vivo; parameters: species or system male rats (Sprague-Dawley)
From the text: The rat acetic acid-induced colitis bioassay has been described by J. E. Krawisz, et al. in Amer. J. Proc. Gastro. Col. Rec. Surg. 31: 11-18 (1980), and by P. Sharon and W. F. Stenson in Gastroenterolgy 88: 55-63 (1985) and 86: 453-460 (1984). Acetic acid-induced colitis is characterized by the movement of inflammatory cells into the colon, with the number of such cells in the mucosa being measured by the activity of myeloperoxidase, a marker enzyme for these cells. Positive desirable activity is indicated by a reduction in the high levels of myeloperoxidase caused by acetic acid. Male rats (Sprague-Dawley), weighing 150 to 300 g, were pretreated twice daily for two days with either the vehicle (water, or dimethylsulfoxide) or the test inhibitor compound suspended in water or dissolved in dimethylsulfoxide and orally administered. On the third day, the animals were dosed the same as on the previous two days, anesthetized with metofane, and 2 ml of 2.5% acetic acid was injected by syringe into the colonic lumen, followed immediately by 3 ml of air and a rinse consisting of 3 ml of phosphate-buffered saline (the acetic acid is present in the lumen for a sufficient period to cause inflammation without producing severe necrosis or irreversible damage). The animals were administered a second dose of the test compound in the same amount about 16 hours later. 24 hours after the acetic acid treatment, the animals were sacrificed, the colonic mucosa was surgically removed and homogenized in an aqueous buffer at pH 6 with a Tissumizer or similar device and myeloperoxidase was measured in the homogenate using o-phenylenediamine as a chromagen, as described by A. Voller, D. E. Bidwell and A. Bartlett in The Enzyme Linked Immunosorbent Assay (ELISA), Zoological Soc., London, 1979, pages 29-30. Control animals were pretreated with the vehicle and saline in place of acetic acid.

[2] = target: T1, Δ^5 -lipoxygenase from rat basophilic leukemia (RBL-1) cells (Rattus norvegicus, UniProt P12527); assay: In vitro test for Δ^5-lipoxygenase inhibitors (5-HETE radioimmunoassay); type: biochemical; settings: for pIC50: RBL-1 5-LO, 5-HETE formation, read-out: Inhib. of Δ^5 Lipoxygenase IC50
T1 construct: The isolated cytosolic fraction was stored in liquid N2 for up to 8 weeks without loss of 5-LO enzyme activity; endogenous in cells; host or cells: RBL-1 cells (ATCC CRL 1378), 113,000×g supernatant (cytosol)
T1 sequence (P12527 1-673): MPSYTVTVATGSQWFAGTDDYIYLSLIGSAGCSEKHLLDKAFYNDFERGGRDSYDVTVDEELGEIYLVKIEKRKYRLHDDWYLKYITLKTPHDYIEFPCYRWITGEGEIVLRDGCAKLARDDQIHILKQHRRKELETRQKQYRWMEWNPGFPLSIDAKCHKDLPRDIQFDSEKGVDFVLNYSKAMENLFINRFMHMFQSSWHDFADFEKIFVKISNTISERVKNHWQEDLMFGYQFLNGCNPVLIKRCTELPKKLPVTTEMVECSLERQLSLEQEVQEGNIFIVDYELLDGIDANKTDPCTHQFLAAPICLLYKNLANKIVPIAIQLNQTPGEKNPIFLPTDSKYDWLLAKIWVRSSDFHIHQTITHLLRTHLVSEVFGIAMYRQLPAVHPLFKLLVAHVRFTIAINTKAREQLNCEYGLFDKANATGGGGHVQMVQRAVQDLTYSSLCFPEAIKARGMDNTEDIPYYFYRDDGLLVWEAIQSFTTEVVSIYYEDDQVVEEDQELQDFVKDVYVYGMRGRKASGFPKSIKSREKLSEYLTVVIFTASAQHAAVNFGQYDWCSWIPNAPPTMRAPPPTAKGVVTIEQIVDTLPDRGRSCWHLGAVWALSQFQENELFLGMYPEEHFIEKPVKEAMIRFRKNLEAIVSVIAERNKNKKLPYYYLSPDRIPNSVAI
Description: RBL-1 cells (CRL 1378) were obtained from the American Type Culture Collection, Rockville, MD. DMEM and glutamine were purchased from Flow Labs, McLean, Va. FBS (Gibco, Grand Island, N.Y.) was heat-inactivated for 1 hour at 56° C. Reagents for protein determinations were obtained from Biorad, Rockville Center, N.Y. Arachidonic acid (approx. 99%), ATP (disodium salt), BHT, dextran (clinical grade), tetrasodium EDTA, gelatin, gentamycin sulfate solution, reduced glutathione, 1 M HEPES buffer, indomethacin, NaCl, reduced NADPH, Trizma 7.2, and Trizma 8.5 were purchased from Sigma Chemical, St. Louis, Mo. CaCL2 dihydrate, Norit A charcoal, and citric acid monohydrate were obtained from Fisher Scientific, Pittsburgh, Pa. […] A synthetic 5-HETE standard was supplied by Dr. M. Rosenberger, Dept. of Medicinal Chemistry, Hoffmann La-Roche, Nutley, N.J.; [see Corey, E. J., and Hashimoto, S. (1981) Tet. […] Approximately 7-9 days after thawing, RBL-1 cells growing in log phase were seeded at a density of 7500 viable cells/ml in a closed 89-liter spinner flask. […] RBL-1 cells were harvested by centrifugation at 4° C. at 1500×g for 10 minutes and were washed 3 times with ice cold 0.05M tris-hCl, pH 7.2, tetrasodium EDTA (buffer 1). The cells were washed last in 0.05M Tris-HCl containing 14 μM indomethacin, 1 mM glutathione, 1.5 mM NaCl, and 1 mM tetrasodium EDTA (buffer 2), resuspended at a density of 5×108'/ml approximately 10 ml) and disrupted manually at 4° C. using a 40 ml Dounce (type A pestle) homogenizer. After 5 minutes of homogenization, 95% cell lysis was confirmed by phase contrast microscopy. The broken cells were diluted 1:2 with buffer 2 and centrifuged at 12,380×g for 10 minutes at 4° C. to pellet cellular debris and granules. The 12,380×g supernatant was centrifuged at 113,000×g for 60 minutes to pellet microsomes. The high-speed supernatant (5.9±0.48 mg/ml protein) was frozen immediately in 1 ml aliquots using a dry ice/acetone bath. The isolated cytosolic fraction was stored in liquid N2 for up to 8 weeks without loss of 5-LO enzyme activity. Compounds were dissolved at 25 mM concentration in DMSO, then diluted to final concentrations using 95% ethanol. For a typical enzyme assay, the partially purified 5-LO preparation was preincubated with drug or vehicle for 10 minutes at 30° C. The assay tubes were then transferred at a 37° C. water bath where they received arachidonic acid (8.25 μM final concentration) to initiate 5-LO activity. […] The samples were immediately cooled on ice and neutralized by dilution with 0.05M Tris-HCl, pH 8.5, which contained 25 mg/1 BHT. A boiled cytosol control was placed at the end of each assay to emasure non-enzymatic oxidation of arachidonic acid. […] Under the assay conditions described, the 5-LO catalyzed the conversion of arachidonic acid to 5-HPETE which, as a consequence of peroxidase activity, was reduced to 5-HETE. A specific radioimmunoassay was employed to quantitate the amount (pmoles) of 5-HETE formed during the enzyme reaction. To prepare the immunogen, Dr. M. Rosenberger (Dept. of Medicinal Chemistry) converted the racemic 5-HETE lactone (Corey, E. J., and Hashimoto, S. (1981) Tet. Letters, 22, 299-302) to its hydrazine derivative. The hydrazide was conjugated to thiolated Keyhole Limpet Hemocyanin (Young, […]., and Rokach, J. (1982) Prostaglandins 23, 603-613) using N-ethyl-maleimide as previously described for LTB4 by (Young, R., N, Zomboni, R. and Rokach, J. 91983) Prostaglandins, 26, 605-613). New Zealand White rabbits received multiple intradermal injections on their backs with […] conjugate emulsified in complete Freund's adjuvant. A schedule of injections reported by Salmon (Salmon, J. A. (1978) Prostaglandins, 15, 383-397) was followed. After the monthly i.p. booster injections, blood was obtained from the marginal ear vein 5-7 days later and assessed for antibody titer. […]

[3] = system: Carrageenan pleurisy; assay: Carrageenan Pleurisy Test (In Vivo); parameters: species or system male Lewis rats; settings: Rattus norvegicus, po, read-out: Rat Carrageenan Pleurisy % Inhib. of Exudate Volume
Description: The animals utilized in these studies were male Lewis rats (Charles River Breeding Laboratories) weighing between 230-250 g. […] At 5 or 24 hours after CG injection, the rats were killed by decapitation, exsanguinated, and the pleural cavity exposed by cutting the ribs on both sides of the sternum. The exudate fluid was removed from the pleural cavity with disposable plastic pipettes and its volume quantitated. The pleural cavity was then washed once with phosphate buffered saline containing fetal bovine serum (1:1) and the washings combined with the exudate. The total number of cells in the pleural cavity was quantitated using a Coulter Counter (Model ZM) adjusted to exclude any contaminating RBC. (Published in "Plant Flavonoids in Biology & Medicine: Biochemical, Pharmacological and Structure-Activity Relationships" p. 231-242 (1986) Alan R. Liss, Inc.)

SMILES: CCCc1c(OCCCCCc2ccc(O)c(O)c2)ccc(C(C)=O)c1O [1-[4-[5-(3,4-Dihydroxyphenyl)pentyloxy]-2-hydroxy-3-propylphenyl]-1-ethanone]
Rat Acetic Acid Colitis Model % Inhib. of Myeloperoxidase Accumulation ([1]; 10 mg/kg p.o): 52 ± 6%

SMILES: CCCc1c(OCCCCCCc2cccc(O)c2O)ccc(C(C)=O)c1O [1-[4-[6-(2,3-Dihydroxyphenyl)hexyloxy]]
Rat Acetic Acid Colitis Model % Inhib. of Myeloperoxidase Accumulation ([1]; 10 mg/kg p.o): 51 ± 5%

pIC50 [2]: 6.72
SMILES: CCCc1c(OCCCCCCc2cccc(O)c2O)ccc(C(=O)O)c1OC(C)=O [2-Acetyloxy-4-[6-(2,3-dihydroxyphenyl)hexyloxy]-3-propylbenzoic acid]
inhibition in vivo at 100 mg/kg ([3]; at 100 mg/kg p.o): 42%

SMILES: Nc1cc(C(=O)O)ccc1OCCCCCCc1cccc(O)c1O [3-Amino-4-[6-(2,3-dihydroxyphenyl)hexyloxy]benzoic acid]
Rat Acetic Acid Colitis Model % Inhib. of Myeloperoxidase Accumulation ([1]; 1 mg/kg p.o): 55 ± 7%

SMILES: CCCc1c(OCCc2ccc(O)c(O)c2)ccc(C(=O)O)c1O [4 [2 (3,4 Dihydroxyphenyl)ethoxy]-2 hydroxy 3 propylbenzoic acid]
Rat Acetic Acid Colitis Model % Inhib. of Myeloperoxidase Accumulation ([1]; 10 mg/kg p.o): 56 ± 6%

SMILES: CCCc1c(OCCCc2cccc(O)c2O)ccc(C(=O)O)c1O [4-[3-(2,3-Dihydroxyphenyl)propoxy]-2-hydroxy-3-propylbenzoic acid]
Rat Acetic Acid Colitis Model % Inhib. of Myeloperoxidase Accumulation ([1]; 10 mg/kg p.o): 54 ± 5%

SMILES: CCCc1c(OCCCCCc2c(O)c(O)c(Cl)c(Cl)c2Cl)ccc(C(=O)O)c1O [4-[5-(2,3,4-Trichloro-5,6-dihydroxyphenyl)pentyloxy]-2-hydroxy-3-propylbenzoic acid]
Rat Acetic Acid Colitis Model % Inhib. of Myeloperoxidase Accumulation ([1]; 1 mg/kg p.o): 115 ± 21%

SMILES: CCCc1c(OCCCCCc2c(O)c(O)cc(Cl)c2Cl)ccc(C(=O)O)c1O [4-[5-(2,3-Dichloro-5,6-dihydroxyphenyl)pentyloxy]-2-hydroxy-3-propylbenzoicacid]
Rat Acetic Acid Colitis Model % Inhib. of Myeloperoxidase Accumulation ([1]; 1 mg/kg p.o): 73 ± 5%

SMILES: CCCc1c(OCCCCCc2c(Cl)ccc(O)c2O)ccc(C(=O)O)c1O [4-[5-(2-Chloro-5,6-dihydroxyphenyl)pentyloxy]-2-hydroxy-3-propylbenzoic acid]
Rat Acetic Acid Colitis Model % Inhib. of Myeloperoxidase Accumulation ([1]; 3 mg/kg p.o): 54 ± 9%

pIC50 [2]: 6.82
SMILES: CCCc1c(OCCCCCCc2cccc(OC(C)=O)c2OC(C)=O)ccc(C(=O)O)c1O [4-[6-[2,3-Bis(acetyloxy)phenyl]hexyloxy]-2-hydroxy-3-propylbenzoic acid]
inhibition in vivo at 75 mg/kg ([3]; at 75 mg/kg p.o): 43%

SMILES: CCCc1c(OCCCCCC(=O)c2cc(O)c(O)cc2F)ccc(C(=O)O)c1O [4-[[6-(2-Fluoro-4,5-dihydroxyphenyl)-6-oxohexyl]oxy]-2-hydroxy-3-propylbenzoic acid]
Rat Acetic Acid Colitis Model % Inhib. of Myeloperoxidase Accumulation ([1]; 10 mg/kg p.o): 40 ± 5%

SMILES: CCCc1c(OCCCCCCc2cc(C)c(O)c(O)c2C)ccc(C(=O)O)c1O [4-[[6-(3,4-Dihydroxy-2,5-dimethylphenyl)hexyloxy]-2-hydroxy-3-propylbenzoicacid]
Rat Acetic Acid Colitis Model % Inhib. of Myeloperoxidase Accumulation ([1]; 3 mg/kg p.o): 37 ± 6%
Rat Acetic Acid Colitis Model % Inhib. of Myeloperoxidase Accumulation ([1]; 10 mg/kg p.o): 85 ± 13%

inhibition at 1 µM ([2]; read-out: Inhib. of Δ^5 Lipoxygenase, % inhibition at 1 μM): 51%
SMILES: CCCc1c(OCCCCCC(=O)c2ccc(O)c(O)c2)ccc(C(=O)O)c1O [4-[[6-(3,4-Dihydroxyphenyl)-6-oxohexyl]oxy]-2-hydroxy-3-propylbenzoic acid]
